Experimental data taken from patent EP0430884B1, “Insecticides and antiparasitic agents” (CIBA-GEIGY AG, priority 1989, dated 1991).

Test system: Haemonchus contortus und Trichostrongylus colubriformis
Assay: B-3 test on sheep infected with nematodes (worm egg count in faeces)
Type: in vivo, Schafe
Source text: Milbemycine mit einer 13β-Alkylthiogruppe sind als Insektizide und Parasitizide aus der Europäischen Offenlegungsschrift EP-0,184,173 bzw. dem korrespondierenden Britischen Patent GB-2,167,751B bekannt. Die biologische Aktivität der 13β-Ethylthiomilbemycine kann man jedoch überraschenderweise durch Einführung der erfindungsgemässen, terminalen [drawing 26] (worin R₃ und X die unter Formel I angegebenen Bedeutungen haben) in die 2-Position der 13β-Ethylgruppe signifikant erhöhen. Vergleicht man z.B. die Verbindung Nr. 1.14 aus obigen Publikationen [drawing 27] mit der erfindungsgemässen Substanz Nr. 1.13 (vgl. Tab. 1) [drawing 28] gemäss dem weiter unten beschriebenen biologischen Beispiel B-3 an Schafen, die mit den Nematoden Haemonchus contortus und Trichostrongylus colubriformis infiziert wurden, so findet man bei einmaliger intraruminaler Applikation von 0,1 mg Aktivsubstanz/kg Körpergewicht folgende Resultate (angegeben in Reduktion der Wurmeier im Kot verglichen mit der Zahl der Eier bei infizierten, aber unbehandelten Schafen):
Der Wirkstoff wird als Suspension formuliert mit einer Magensonde oder durch Injektion in den Pansen eines Schafes gegeben, das mit Haemonchus contortus und Trychostrongylus colubriformis künstlich infiziert worden ist. Pro Dosis werden 1 bis 3 Tiere verwendet. […]

In the case of CC[C@H]1O[C@]2(CC[C@@H]1C)C[C@@H]1C[C@@H](C/C=C(\C)[C@H](SCCc3ccc(NC(=O)OC)cc3)[C@@H](C)/C=C/C=C3\CO[C@@H]4[C@H](O)C(C)=C[C@@H](C(=O)O1)[C@]34O)O2 [1.13, 13β-(2-[4-(Methoxycarbonylamino)phenyl]ethylthio)milbemycin A4], the “Reduktion der Wurmeier im Kot verglichen mit der Zahl der Eier bei infizierten, aber unbehandelten Schafen” value (Versuch 1, single intraruminal application of 0,1 mg Aktivsubstanz/kg Körpergewicht) is reported as 99% and the “Reduktion der Wurmeier im Kot verglichen mit der Zahl der Eier bei infizierten, aber unbehandelten Schafen” value (Versuch 2 (Wiederholung von 1), single intraruminal application of 0,1 mg Aktivsubstanz/kg Körpergewicht) is reported as 93%.
